# Results from PMC8204796 (ACS Pharmacology & Translational Science, 2021).
# System: NPC1^I1061T patient-derived fibroblast cells (GM18453)
# Experiment: LipidTox Red lipid droplet staining
# Format: cell-based, human
# Conditions: 10 μM, 48 h, vs DMSO
smiles,measurement,value
CC(=O)Nc1ccc(C(=O)Nc2ccccc2N)cc1 [CI-994],Lipid droplet formation (LipidTox Red),increases lipid droplet formation
